Molecules are shown by their SMILES.

The term melting point denotes the temperature, or range, at which the solid turns liquid. As for `COc1cc(C(=O)NS(=O)(=O)c2ccccc2C)ccc1Cc1cn(C)c2ccc(CC3CCN(C)C3=O)cc12` (stereo not given), the melting point lay within 115 to 135 °C.
The figure for `CCOC(=O)C=CC1C(C(=O)O)C1(C)C` (stereo not given) is 96 °C.
With `O=C(O)c1ccc(C(=O)N2Cc3cccn3Cc3ccccc32)cc1`, the melting point was 210 to 214 °C.
`CCOC(=O)C(=NNc1ccccc1CC)C(=O)OCC` returned a melting point of 33 to 34 °C.
The figure for `O=C(O)c1ccc(NCc2ccc(Cl)s2)cc1` is 177 to 178 °C; for `ClC1=Nc2ccccc2Oc2ccccc21` it is 53 to 55 °C.
The figure for `CCOC(=O)C(C)(C)CCCCOc1cc(C)c(N=Nc2ccc([N+](=O)[O-])cc2)c(C)c1` is 89 to 90 °C; for `CCC(CC)Nc1cc(C)nc(Cl)c1N` it is 165 to 166 °C; for `O=C(Nc1ccc([N+](=O)[O-])cc1)N1CCN(c2nc(-c3ccccc3)nc3ccccc23)CC1` it is 236 to 238 °C.
The figure for `COC(=O)c1ccc2c(C(C(=O)O)c3ccc4c(c3)OCO4)cn(C)c2c1` (stereo not given) is 194 to 198 °C; for `O=C(Nc1ccc(Oc2ccccc2)cc1)c1cc([N+](=O)[O-])ccc1Cl` it is 128 °C.
`N#Cc1cccc(NC(=O)c2ccc3ccccc3c2)c1`: the melting point was 138 to 140 °C.
For `CN1Cc2cncn2-c2cccc(Cl)c2C1=O` the value was 200 to 201 °C.
`CCOC(=O)c1c(NC=CC(=O)C(C)C)sc(-c2ccc(OC)cc2)c1C`: the melting point fell in the range of 121 to 122 °C.
The figure for `CCCCc1nc2ccccc2c(=O)[nH]1` is 153 to 155 °C; for `CN1CCN(c2ncnc3oc(-c4ccc([N+](=O)[O-])cc4)c(-c4ccc(F)cc4)c23)CC1` it is over 250 °C; for `CCOC(=O)CN1C(=O)Nc2cccc(Cl)c2C1C` (stereo not given) it is 143 to 144 °C.
`CCOC(=O)CC(=O)c1cc(F)c(OP(=O)(OCC)OCC)nc1Nc1ccc(F)cc1F` came in with a melting point of 127 to 130 °C.
The figure for `CN(N)C(=S)Nc1ccc([N+](=O)[O-])cc1Cl` is 164 to 167 °C; for `CCOC(=O)C1C(=O)Nc2ccccc2C1c1ccccc1` (stereo not given) it is 178 to 180 °C.
For `CC(C)n1c(/C=C/C=O)c(-c2ccc(F)cc2)c2ccccc2c1=O` the value was 159 to 161 °C.
The figure for `COc1ccc2oc(-c3nc4c(s3)NCCCC4)cc2c1` is 121 to 125 °C; for `CC(C)(C)OC(=O)N1C(=O)O[C@@H](c2cccc(Cl)c2)[C@H]1Cc1ccc(CC(F)(F)C(F)(F)F)cc1` (racemic) it is 136 to 138 °C.
`O=C(O)C1Cc2ccccc2N1S(=O)(=O)c1ccc(-c2cccc(C(F)(F)F)c2)cc1` (stereo not given) returned a melting point of 108 to 112 °C.
`CC(C)(C)OC(=O)N(CCCn1ncc2cc(C(=O)O)ccc21)c1ccccn1` showed a melting point of 129 to 131 °C.
The molecule `O=S1(=O)c2cccc3cccc(c23)N1CCN1CCC(CN2CCc3[nH]c4ccc(F)cc4c3C2)CC1` came in with a melting point of 228 °C.
For `CCC(OCC1CC1)c1ccc(Cl)c2nc3n(c12)CCCN3c1ccc(Cl)cc1Cl` (stereo not given) the value was 159 to 160 °C; for `CC1(C)CCC(C)(C)c2cc([N+](=O)[O-])c(O)cc21`, 139 °C; for `CC(C)[Si](O[C@@H](CO)[C@H](CC1CCCCC1)NC(=O)OC(C)(C)C)(C(C)C)C(C)C`, 61 to 63 °C.
For `Nc1c(C(=O)Cc2ccccc2)[nH]c2cc(Cl)ccc12` the value was 204 to 205 °C; for `O=c1c(CCCc2cccnc2)cc2cccnc2n1-c1ccc2nsnc2c1`, 174 °C.
As for `OCCCc1ccc(OCC2CCCO2)cc1Oc1ncc(C(F)(F)F)cc1Cl` (stereo not given), the melting point was 91.3 to 93.6 °C.
The figure for `CCOC(=O)CSc1nc(Cl)cc(-c2ccccc2)n1` is 82 to 84 °C.
The molecule `CN(C)c1ccccc1CC(=O)N1C[C@@H]2C(=O)CCC(c3ccccc3)(c3ccccc3)[C@@H]2C1` displayed a melting point of 150 °C.
For `COc1c(C(C)(C)C)cc(COc2ccc(C=C3SC(=S)NC3=O)cc2)cc1C(C)(C)C` the value was 213 to 218 °C.
On to `COc1ccc(N2CCOCC2)c2sc(C(=O)NC3CCN(C(=O)OC(C)(C)C)CCC3O)nc12` (stereo not given), for which the melting point was 71 to 73 °C.
For `NC(=O)C1=C(S(=O)Cc2ccccc2)CCC1` (stereo not given) the value was 174 °C.
With `COC(=O)C1=C(Cl)C(=O)CC(c2ccc(Cl)c(OC)c2F)N1` (stereo not given), the melting point lay in the range of 127 to 129 °C.
The figure for `COC(=O)c1cccc(-c2ccccc2C#N)c1` is 83 to 85 °C; for `O=c1[nH]c2ccc(Br)cc2c(=O)n1CCS` it is 334 to 336 °C.
Take `OC(c1ccc(Cl)cc1)(c1ccccc1F)C1CO1` (stereo not given): the melting point is 120 to 122 °C.
For the molecule `CC(C)(C)C(NC(=O)Nc1ccccc1F)NC(=O)c1ccc(Cl)cc1` (stereo not given), the melting point was in the range of 229 to 230 °C.
On to `Cc1nc(C)c(Cl)c(NCc2nccc(SCCCSCC3CN(C)C(=O)O3)c2C)n1` (stereo not given), for which the melting point is 121 °C.
`CN=Cc1ccc(-c2ccc(OC)c(Br)c2)cc1`: the melting point was 115 to 117 °C.
As to `COc1ccc(N2CCOCC2)c2sc(-c3ncc(-c4sc5ccccc5c4C)[nH]3)nc12`, the melting point was 213 to 215 °C.
Regarding `NC(=O)CC[C@H](NC(=O)CCc1ccc(OCc2ccccc2)cc1OCc1ccccc1)C(=O)N1CCN(c2ccccc2)CC1`, the melting point was in the range of 118 to 120 °C.
As to `COc1cc(-c2nc(Nc3ccc(C)cc3)c3ccccc3n2)cc(OC)c1OC`, the melting point is over 250 °C.
The figure for `O=C(NC(Cc1ccccc1)P(O)O)OCc1ccccc1` (stereo not given) is 137 °C.
For `COC(=O)c1cnn(-c2c(Cl)cc(Cl)cc2Cl)c1N` the value was 179 to 180 °C; for `COC(=O)c1ccc2c(C)csc2c1`, 46 to 47 °C; for `CCn1c2ccc(C(=O)CCCCCl)cc2c2cc(C(=O)CCCCCl)ccc21`, 94 to 95 °C.
For `O=[N+]([O-])c1ccc(OCC(F)(F)F)c([N+](=O)[O-])c1` the value was 76 to 77 °C; for `Cn1c(=O)n(SC(Cl)(Cl)Cl)n(-c2ccccc2)c1=O`, 214 °C; for `COC(=O)Cc1ccc(CN2CCN(C(c3ccccc3)c3ccccc3)CC2)cc1`, 124 to 125 °C.
In the case of `CCCNc1ncnc2c1ncn2Cc1c(F)cccc1Cl`, the melting point lay in the range of 166 to 167 °C.
Take `CC(C)(C)OC(=O)COc1ccc(NC(=O)NC(=O)c2ccc(C(N)=S)nc2)cc1`: the melting point was 248 to 249 °C.
The figure for `COc1ccc(/C=C/C(=O)C2C(=O)CC(c3ccc(OC)cc3)C([N+](=O)[O-])C2c2ccccc2)cc1` (stereo not given) is 164 to 165 °C.
For `O=[N+]([O-])c1ccc(S(=O)(=O)NCc2ccc(Cl)cc2)c([N+](=O)[O-])c1` the value was 161 to 162 °C.
As to `CC(C)CC1N=C(c2ccccc2)OC1=O` (stereo not given), the melting point was 53 to 55 °C.
In the case of `Cc1ccccc1Sc1cccc(C(C)C(=O)O)c1O` (stereo not given), the melting point was in the range of 123 to 125 °C.
As for `CNc1ccc(C(=O)OC)c(OC)n1`, the melting point fell in the range of 120 to 122 °C.
For `Oc1ccc(-c2cc3cc(F)ccc3o2)cc1` the value was 202 to 204 °C.
For `O=C(NCCCc1ccncc1)N(CCCc1ccccc1)C(c1ccccc1)c1ccccc1` the value was 123 to 125 °C; for `CCCOCCOc1ccc(OCC(O)CNCCNC(=O)N2CCOCC2)cc1` (stereo not given), 88 °C.
`Brc1cnc(Br)c2ccccc12`: the melting point was in the range of 95 to 96 °C.
With `COC(=O)c1ccc2nc(C)ccc2c1`, the melting point is 98 to 101 °C.
The figure for `BrCCCCCCCn1c(-c2ccccc2)nc(-c2ccccc2)c1-c1ccccc1` is 69 to 71 °C; for `COC(=O)c1cc(OC(F)F)cnc1C1=NC(C)(C(C)C)C(=O)N1` (stereo not given) it is 104 to 105 °C; for `NC(=O)c1cccc(OCCCl)c1` it is 125 to 126 °C.
Take `O=C1CC2Sc3nc4ccccc4n3C2(c2ccc(Cl)cc2)O1` (stereo not given): the melting point was 115 to 117 °C.
The figure for `CC=C1CCC2C3CCC4CC(O)C(OCC)CC4(C)C3C(N(C)C)CC12C` (stereo not given) is 63 to 78 °C.
The figure for `COc1cccc(-c2coc3ccc(-c4nnc(C)o4)cc23)c1` is 127 to 128 °C; for `c1ccc2c(c1)nc(-c1ccc3c(c1)OCO3)n2CC1CCCCC1` it is 100 to 102 °C; for `NSc1ccc([N+](=O)[O-])cc1C(Cl)(Cl)Cl` it is 105 °C.
For `COc1ccc2cc([C@H](C)C(=O)OCCN3CCC(C)(SN=O)CC3)ccc2c1` the value was 131 °C; for `CC(C)c1cccc(-c2nscc2C(=O)O)c1`, 143 to 157 °C.
In turn, `CC(C)c1cc(N(C)C)cc2c1C(=O)N(COC(=O)c1c(Cl)cccc1Cl)S2(=O)=O` had a melting point of 177 to 179 °C.
For `CCCCCCCCCCCCCCCCSC(N)C(CN)C(=O)OC(C)(C)C` (stereo not given) the value was 46 to 47 °C; for `c1cncc(-c2cc3ccccc3[nH]2)c1`, 176 to 177 °C; for `N#Cc1c(OCC#CI)nsc1SC(F)F`, 106 to 107 °C.
The figure for `CNc1ccc(C(C)(C)c2ccc(C(C)(C)c3ccc(NC)cc3)cc2)cc1` is 115 to 122 °C.
For `COc1ccc(C(C)(c2ccc(OC)cc2)c2ccc(OC)cc2)cc1` the value was 160 °C; for `CNC(=O)N1CCC(=NO)c2cc(Cl)ccc21`, 211 to 212 °C.
`CNC(=O)c1ccccc1Nc1nc(Nc2ccc3c(c2)CCN(S(C)(=O)=O)CC3)ncc1Cl` registered a melting point of 251 to 256 °C.
`O=[N+]([O-])c1cc(Cl)ccc1I(Cl)Cl` returned a melting point of 53 to 60 °C.
`C[C@]1(CN2CCN(c3ccc(OC(F)(F)F)cc3)CC2)Cn2cc([N+](=O)[O-])nc2O1` had a melting point of 129 to 130 °C.
For `COC(=O)c1ccc([N+](=O)[O-])cc1S(=O)(=O)Cl` the value was 86 to 88 °C; for `Nc1nc2ccccc2c2c1nc1n2C(CCl)COC1` (stereo not given), 230 to 232 °C.
Turning to `CC(C)NCCOc1ccc(O)cc1`, the melting point is 78 to 80 °C.
For `CCOc1cc(C(C)C)ccc1C1CCN(CCCCNC(=O)c2ccc(NC(=O)c3ccc(Cl)cc3)cc2)CC1` the value was 242 °C.

For the origin of these results see a melting point compilation (Tetko et al.; mined from patent text by program, amines drawn as free bases though some values may be those of a salt).
